Test results reported in patent US20070117776A1, “Low Dose Therapy Of DNA Methylation Inhibitors” (priority 2005, published 2007).
Like-named read-outs stand apart in the source and are kept apart here.

Legend:
[1] = assay type: physicochemical
Description: Maintaining the solution at low temperature and buffering the drug can control degradation kinetics of aqueous solutions but the stability achieved is not sufficient to render the product stable during its entire proposed shelf life. A dry solid formulation of decitabine which is stable was achieved by lyophilization of an aqueous solution. The process of lyophilization to obtain a solid form is considered essential for maximizing the stability of the product.
A bulk solution of 5 mg/mL of decitabine was prepared during compounding. To minimize degradation during compounding of the bulk solution prior to lyophilization, the bulk solution was maintained at low temperature, and the time the drug remains in solution prior to lyophilization was minimized. Maximum solution stability was achieved by dissolving the drug in a pH 6.8-7.0 phosphate buffer solution at 0-4° C.
Based on the results, appropriate recommendations for the preparation and storage of the reconstituted and diluted solutions can be made to pharmacists and clinical practitioners. The product was reconstituted in 10 mL WFI and diluted with one of the three pre-chilled infusion fluids indicated in Table 1 and Table 2 to two different concentrations, 0.1 mg/mL and 1 mg/mL covering the entire concentration range expected to be used in the clinical setting. The diluted solutions were stored for one to ten hours in infusion bags in the refrigerator at 2-8° C. to simulate conditions prior to infusion and then removed and placed at room temperature to simulate conditions during infusion. Bags placed in the refrigerator for one hour were removed and placed at room temperature and sampled thereafter for the next three hours at room temperature (Experiment No. 1) while the bags placed in the refrigerator for ten hours were removed and sampled for the next two hours at room temperature (Experiment No. 2).
The method used to estimate degradation products is based on percent peak area measurements assuming the degradation products have a response factor of 1, with respect to decitabine.
Table 1 and Table 2 also show the pH data obtained after the preparation of the infusion, which is consistently within ±0.3 pH units of neutral pH.

[2] = tested on: cytidine deaminases; conditions: enzymatic degradation by cytidine deaminases, particularly in the small intestine; cited from earlier work
[3] = about 1.0 mg/mL in 0.9% NaCl, Experiment 1 (2-8° C. one hour, then room temperature), at 0 h
[4] = about 1.0 mg/mL in 0.9% NaCl, Experiment 1 (2-8° C. one hour, then room temperature), at 1 h
[5] = about 1.0 mg/mL in 0.9% NaCl, Experiment 1 (2-8° C. one hour, then room temperature), at 2 h
[6] = about 1.0 mg/mL in 0.9% NaCl, Experiment 1 (2-8° C. one hour, then room temperature), at 3 h
[7] = about 1.0 mg/mL in 0.9% NaCl, Experiment 1 (2-8° C. one hour, then room temperature), at 4 h
[8] = about 1.0 mg/mL in 0.9% NaCl, Experiment 2 (2-8° C. ten hours, then room temperature), at 0 h
[9] = about 1.0 mg/mL in 0.9% NaCl, Experiment 2 (2-8° C. ten hours, then room temperature), at 10 h
[10] = about 1.0 mg/mL in 0.9% NaCl, Experiment 2 (2-8° C. ten hours, then room temperature), at 11 h
[11] = about 1.0 mg/mL in 0.9% NaCl, Experiment 2 (2-8° C. ten hours, then room temperature), at 12 h
[12] = about 1.0 mg/mL in 5% Dextrose, Experiment 1 (2-8° C. one hour, then room temperature), at 0 h
[13] = about 1.0 mg/mL in 5% Dextrose, Experiment 1 (2-8° C. one hour, then room temperature), at 1 h
[14] = about 1.0 mg/mL in 5% Dextrose, Experiment 1 (2-8° C. one hour, then room temperature), at 2 h
[15] = about 1.0 mg/mL in 5% Dextrose, Experiment 1 (2-8° C. one hour, then room temperature), at 3 h
[16] = about 1.0 mg/mL in 5% Dextrose, Experiment 1 (2-8° C. one hour, then room temperature), at 4 h
[17] = about 1.0 mg/mL in 5% Dextrose, Experiment 2 (2-8° C. ten hours, then room temperature), at 0 h
[18] = about 1.0 mg/mL in 5% Dextrose, Experiment 2 (2-8° C. ten hours, then room temperature), at 10 h
[19] = about 1.0 mg/mL in 5% Dextrose, Experiment 2 (2-8° C. ten hours, then room temperature), at 11 h
[20] = about 1.0 mg/mL in 5% Dextrose, Experiment 2 (2-8° C. ten hours, then room temperature), at 12 h
[21] = about 1.0 mg/mL in Lactated Ringer's, Experiment 1 (2-8° C. one hour, then room temperature), at 0 h
[22] = about 1.0 mg/mL in Lactated Ringer's, Experiment 1 (2-8° C. one hour, then room temperature), at 1 h
[23] = about 1.0 mg/mL in Lactated Ringer's, Experiment 1 (2-8° C. one hour, then room temperature), at 2 h
[24] = about 1.0 mg/mL in Lactated Ringer's, Experiment 1 (2-8° C. one hour, then room temperature), at 3 h
[25] = about 1.0 mg/mL in Lactated Ringer's, Experiment 1 (2-8° C. one hour, then room temperature), at 4 h
[26] = about 1.0 mg/mL in Lactated Ringer's, Experiment 2 (2-8° C. ten hours, then room temperature), at 0 h
[27] = about 1.0 mg/mL in Lactated Ringer's, Experiment 2 (2-8° C. ten hours, then room temperature), at 10 h
[28] = about 1.0 mg/mL in Lactated Ringer's, Experiment 2 (2-8° C. ten hours, then room temperature), at 11 h
[29] = about 1.0 mg/mL in Lactated Ringer's, Experiment 2 (2-8° C. ten hours, then room temperature), at 12 h

Nc1ncn([C@H]2C[C@H](O)[C@@H](CO)O2)c(=O)n1 [Decitabine, 4-amino-1-(2-deoxy-β-D-erythro-pentofuranosyl)-1,3,5-triazin-2(1H)-one]
pH after the preparation of the infusion ([1]; about 1.0 mg/mL in 0.9% NaCl): 6.7
Decitabine Content [1, 3]: 98.0%
Total Impurities [1, 3]: (2.1%)
Decitabine Content [1, 4]: 96.8%
Total Impurities [1, 4]: (3.3%)
Decitabine Content [1, 5]: 94.8%
Total Impurities [1, 5]: (5.2%)
Decitabine Content [1, 6]: 92.8%
Total Impurities [1, 6]: (7.3%)
Decitabine Content [1, 7]: 91.1%
Total Impurities [1, 7]: (9.0%)
Decitabine Content [1, 8]: 97.4%
Total Impurities [1, 8]: (2.7%)
Decitabine Content [1, 9]: 93.4%
Total Impurities [1, 9]: (6.7%)
Decitabine Content [1, 10]: 92.5%
Total Impurities [1, 10]: (7.6%)
Decitabine Content [1, 11]: 90.8%
Total Impurities [1, 11]: (9.2%)
pH after the preparation of the infusion ([1]; about 1.0 mg/mL in 5% Dextrose): 7.1
Decitabine Content [1, 12]: 98.0%
Total Impurities [1, 12]: (2.0%)
Decitabine Content [1, 13]: 97.0%
Total Impurities [1, 13]: (3.1%)
Decitabine Content [1, 14]: 95.6%
Total Impurities [1, 14]: (4.4%)
Decitabine Content [1, 15]: 93.7%
Total Impurities [1, 15]: (6.4%)
Decitabine Content [1, 16]: 91.9%
Total Impurities [1, 16]: (8.1%)
Decitabine Content [1, 17]: 97.7%
Total Impurities [1, 17]: (2.4%)
Decitabine Content [1, 18]: 94.5%
Total Impurities [1, 18]: (5.5%)
Decitabine Content [1, 19]: 93.9%
Total Impurities [1, 19]: (6.1%)
Decitabine Content [1, 20]: 93.0%
Total Impurities [1, 20]: (7.1%)
pH after the preparation of the infusion ([1]; about 1.0 mg/mL in Lactated Ringer's): 6.8
Decitabine Content [1, 21]: 98.1%
Total Impurities [1, 21]: (2.0%)
Decitabine Content [1, 22]: 97.3%
Total Impurities [1, 22]: (2.7%)
Decitabine Content [1, 23]: 96.2%
Total Impurities [1, 23]: (3.8%)
Decitabine Content [1, 24]: 95.1%
Total Impurities [1, 24]: (4.9%)
Decitabine Content [1, 25]: 93.7%
Total Impurities [1, 25]: (6.4%)
Decitabine Content [1, 26]: 98.0%
Total Impurities [1, 26]: (2.1%)
Decitabine Content [1, 27]: 94.1%
Total Impurities [1, 27]: (5.9%)
Decitabine Content [1, 28]: 93.3%
Total Impurities [1, 28]: (6.8%)
Decitabine Content [1, 29]: 91.8%
Total Impurities [1, 29]: (8.2%)
visual inspection of solutions ([1]; all reconstituted and diluted solutions): clear and colorless
drug content in the infusion solution during infusion ([1]; infusions prepared and stored as instructed): above 90%
oral bioavailability [2]: reduced oral bioavailability
